Test system: R. oryzae UCP1295
Experiment: Screening of the Pandemic Response Box library at 5 µM
Format: cell-based, Rhizopus oryzae
Conditions: 48 h, Table S1, mean of the four values
Procedure, shortened: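 Compounds at 5 μM in RPMI 1640 with 2% glucose and MOPS (0.165 mol/L, pH 7.2), with conidia at 2 × 10^5/mL, incubated 48 h at 37 °C in 5% CO2. Growth read by OD at 600 nm; hits defined as ≥60% inhibition. Posaconazole (5 μM) and 1% DMSO as controls.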

CC(C)Oc1ccc(-n2cnc3cc(/C=C\c4ccc(C(C)(C)O)cc4)ccc32)cc1 [MMV1782350]
% of growth inhibition, Mean: 26.5%

CCOc1noc2cc(OCCC3CCN(c4ccc(C)nn4)CC3)ccc12 [MMV1634071]
% of growth inhibition, Mean: -15.0%

COc1cc2c(O)c3c(c(-c4ccc5c(c4)OCO5)c2cc1OC)C(=O)OC3 [MMV102270]
% of growth inhibition, Mean: -33.2%

Cc1c[nH]c(=O)nc1NCc1ccccc1 [MMV1582489]
% of growth inhibition, Mean: -18.8%

Cc1ccc(C)c(OCCCCCCN2C[C@H](O)[C@@H](O)[C@H](O)[C@H]2CO)c1 [MMV1634401]
% of growth inhibition, Mean: 10.8%

O=C1CCC(N2C(=O)c3ccccc3C2=O)C(=O)N1 (stereo not drawn) [MMV002612]
% of growth inhibition, Mean: -21.8%

CC(=O)N1CCN(c2ccc(OC[C@@H]3CO[C@@](Cn4ccnc4)(c4ccc(Cl)cc4Cl)O3)cc2)CC1 [MMV637533]
% of growth inhibition, Mean: -5.2%

O=C(Nc1nnc(-c2ccccc2)o1)c1ccc(F)cc1 [MMV1578578]
% of growth inhibition, Mean: -32.9%

O=C(N[C@H](CCS)C(=O)N[C@H](Cc1ccccc1)C(=O)O)c1cc2ccccc2[nH]1 [MMV1581557]
% of growth inhibition, Mean: 0.3%

CC(=O)O[C@H]1C[C@@]2(C)[C@@H](C[C@@H](O)[C@H]3[C@@]4(C)CC[C@@H](O)[C@@H](C)[C@@H]4CC[C@@]32C)/C1=C(\CCC=C(C)C)C(=O)O [MMV1578575]
% of growth inhibition, Mean: -21.4%

O=C(Nc1ccc(Cl)c(C(F)(F)F)c1)C(CCCl)C(=O)Nc1ccc(Cl)c(C(F)(F)F)c1 [MMV1580840]
% of growth inhibition, Mean: -7.5%

Cn1c2ccccc2c(=O)c2c(O)cccc21 [MMV1580500]
% of growth inhibition, Mean: -3.0%

Reference: paper PMC9959553, “Promising Antifungal Molecules against Mucormycosis Agents Identified from Pandemic Response Box®: In Vitro and In Silico Analyses” (Journal of Fungi, 2023)
